One block for each compound: values may come before it.
What was measured:
[1] = tested on: Candida albicans ATCC 10231; experiment: Synergistic antimicrobial activity as MIC (96-well microplate, optical density at 620 nm), Candida albicans; type: cell-based
Excerpt: (§1) FIC Index=(MICa with B/MICa)+(MICb with A/MICb)
(§2) with: • MICa with B: minimum concentration of product A in the combination A+B which makes it possible to obtain an inhibitory effect • MICb with A: minimum concentration of product B in the combination A+B which makes it possible to obtain an inhibitory effect. • MICa: minimum inhibitory concentration of product A alone. • MICb: minimum inhibitory concentration of product B alone.
(§3) As regards the combinations tested, MICa with b and MICb with a are the respective concentrations of A and of B in the combinations which make it possible to obtain a microbial growth percentage of less than or equal to 20%.
(§4) When the FIC index value is less than or equal to 1, it is considered that the combination of test compounds has a synergistic effect.
The microbial strain Candida albicans ATCC 10231 and a double-concentration Sabouraud broth liquid culture medium were used.
(§5) A 96-well microplate and an […] of 32.5° C. are used.
(§6) The incubation time of the microplate is: • from 18 to 24 h under aerobic conditions for Candida albicans ATCC 10231; • from 24 to 30 h under aerobic conditions for Aspergillus niger ATCC 6275.
(§7) A 10% (weight/volume) stock solution was prepared by mixing 1 g of compound in 9 ml of aqueous 1% o agar solution. Successive dilutions were made with the 1% o agar solution. • Test of compounds A and B alone
(§8) 50 μl of each of the daughter solutions obtained containing compound A or B are added to the microplate wells. 100 μl of Sabouraud liquid nutrient broth inoculated with the strain Aspergillus niger and 50 μl of aqueous 1% o agar solution are also added thereto. • Test of compounds A and B as a mixture
(§9) 50 μl of each of the daughter solutions obtained containing compound A and 50 μl of each of the daughter solutions obtained containing compound B are added to the microplate wells. 100 μl of Sabouraud liquid nutrient broth inoculated at double concentration with the strain Aspergillus niger are also added thereto.
The test as described above (tests, absorbance control and growth control) was performed again to test the combination A and B on the Candida albicans strain.

[2] = tested on: Aspergillus niger ATCC 6275; experiment: Synergistic antimicrobial activity as MIC (96-well microplate, optical density at 620 nm), Aspergillus niger; type: cell-based
Excerpt: as §1, §2, §3, §4
The microbial strain Aspergillus niger ATCC 6275, and a double-concentration Sabouraud broth liquid culture medium supplemented with polyoxyethylenated (20 OE) sorbitan monopalmitate (Tween 40 from Croda) and Phytagel© BioReagent were used (i.e. a mixture of 5 g of Phytagel+0.6 g Tween 40+60 g of Sabouraud broth).
as §5, §6, §7, §8, §9
A positive microbial growth control was also prepared. The positive microbial growth control corresponds to a mixture of 100 μl of aqueous 1% o agar solution with 100 μl of Sabouraud liquid nutrient broth inoculated at double concentration with the strain Aspergillus niger in the absence of compounds A and B.
An absorbance control was performed in parallel on compounds A and B alone. This control corresponds to 100 μl of double concentration sterile Sabouraud liquid nutrient broth+100 μl of double concentration compound A or B.
In the three cases (absorbance control, growth control and test), the final volume present in each of the microplate wells is 200 μl.
In the two cases (test and control), the inoculum represents the concentration of the Aspergillus niger strain present in the final volume of the wells (200 μl) and is between 2 and 6×10^5 cfu/ml of Aspergillus niger.

[3] = Aspergillus niger, growth <= 20%

- % MIC A ([1]; A alone, Candida albicans, test series with B2, growth <= 20%): 0.2%
- % MIC of A alone ([1]; Candida albicans, test series with B3, growth <= 20%): 0.2%
- % MIC of A alone ([2]; Aspergillus niger, test series with B1, growth <= 20%): 0.1%
- % MIC of A alone ([2]; Aspergillus niger, test series with B3, growth <= 20%): 0.1%
Compound: CCOc1cc(CCC(C)=O)ccc1O [A, 4-(3-ethoxy-4-hydroxyphenyl)butan-2-one]
- microbial growth percentage ([1]; 0.025 A, 0 B2 (weight %)): 81%
- microbial growth percentage ([1]; 0.025 A, 0 B3 (weight %)): 78%
- microbial growth percentage ([1]; 0.05 A, 0 B2 (weight %)): 60%
- microbial growth percentage ([1]; 0.05 A, 0 B3 (weight %)): 61%
- microbial growth percentage ([1]; 0.1 A, 0 B2 (weight %)): 27%
- microbial growth percentage ([1]; 0.1 A, 0 B3 (weight %)): 25%
- microbial growth percentage ([1]; 0.2 A, 0 B2 (weight %)): 4%
- microbial growth percentage ([1]; 0.2 A, 0 B3 (weight %)): 3%
- microbial growth percentage ([2]; 0.025 A, 0 B1 (weight %)): 42%
- microbial growth percentage ([2]; 0.025 A, 0 B3 (weight %)): 39%
- microbial growth percentage ([2]; 0.05 A, 0 B1 (weight %)): 25%
- microbial growth percentage ([2]; 0.05 A, 0 B3 (weight %)): 32%
- microbial growth percentage ([2]; 0.1 A, 0 B1 (weight %)): 10%
- microbial growth percentage ([2]; 0.1 A, 0 B3 (weight %)): 12%

Compound: OCCCO [B1, 1,3-propanediol]
- microbial growth percentage ([2]; 0 A, 0.125 B1 (weight %)): 77%
- microbial growth percentage ([2]; 0 A, 0.25 B1 (weight %)): 62%
- microbial growth percentage ([2]; 0 A, 0.5 B1 (weight %)): 50%
- microbial growth percentage ([2]; 0 A, 1 B1 (weight %)): 36%
- microbial growth percentage ([2]; 0 A, 2 B1 (weight %)): 11%
- % MIC of B1 alone [2, 3]: 2%

- MIC B2 ([1]; B2 alone, Candida albicans, growth <= 20%): 0.2%
Compound: CCCCCCC(O)CO (centres unmarked) [B2, 1,2-octanediol]
- microbial growth percentage ([1]; 0 A, 0.025 B2 (weight %)): 79%
- microbial growth percentage ([1]; 0 A, 0.05 B2 (weight %)): 60%
- microbial growth percentage ([1]; 0 A, 0.1 B2 (weight %)): 23%
- microbial growth percentage ([1]; 0 A, 0.2 B2 (weight %)): 0%

- % MIC of B3 alone ([1]; Candida albicans, growth <= 20%): 0.025%
- % MIC of B3 alone [2, 3]: 0.025%
Compound: CCCCCCCCC(O)CO (centres unmarked) [B3, 1,2-decanediol]
- microbial growth percentage ([1]; 0 A, 0.0125 B3 (weight %)): 45%
- microbial growth percentage ([1]; 0 A, 0.025 B3 (weight %)): 3%
- microbial growth percentage ([2]; 0 A, 0.0125 B3 (weight %)): 42%
- microbial growth percentage ([2]; 0 A, 0.025 B3 (weight %)): 10%

Source: patent US20210205192A1, “ANTIMICROBIAL MIXTURE CONTAINING 4-(3-ETHOXY-4-HYDROXYPHENYL)BUTAN-2-ONE AND A DIOL, AND COSMETIC COMPOSITION CONTAINING SAME” (L'OREAL, priority 2017, published 2021)
